Assay results from PMC10449633 (Nature Chemical Biology, 2023).
Numbered stars: 1 amine (or outer) side, 2 acyl side, 3 side chain; on linkers, the order of the positions; unused ones are H or OH. Square brackets hold non-standard residues; d marks the D form. Peptide text beside a SMILES is read from it. ξ: configuration not given here. X1 = CN(C(Cc1cn(Cc2ccc(Br)cc2)c2ccccc12)C(=O)[*:2])[*:1]; ξAla(CF3) = NC(CC(F)(F)F)C(=O)O; X2 = N#CCCC(O[*:1])C(=O)[*:2]; NMeL = CN[CH](CC(C)C)C(=O)O; NMeA = CN[CH](C)C(=O)O

Test system: SARS-CoV-2 spike protein
Type: cell-based

CC(C)CC1NC(=O)C(Cc2cn(Cc3ccc(Br)cc3)c3ccccc23)N(C)C(=O)C(CC(F)(F)F)NC(=O)C(CC(C)C)N(C)C(=O)C(CC(F)(F)F)NC(=O)C(CCC#N)OC(=O)C(C)N(C)C1=O (stereo not shown) [KZR-8445] (cyclo([X1]L[NMeA][X2][ξAla(CF3)][NMeL][ξAla(CF3)]); configuration not given here)
biogenesis of the Spike protein: inhibits
